The target of assay [1] is T1, human Siglec-2/CD22 protein (Homo sapiens, UniProt P20273).
T1 construct: purchased Acro Biosystems SI2-H82E3
T1 sequence (P20273 20-847): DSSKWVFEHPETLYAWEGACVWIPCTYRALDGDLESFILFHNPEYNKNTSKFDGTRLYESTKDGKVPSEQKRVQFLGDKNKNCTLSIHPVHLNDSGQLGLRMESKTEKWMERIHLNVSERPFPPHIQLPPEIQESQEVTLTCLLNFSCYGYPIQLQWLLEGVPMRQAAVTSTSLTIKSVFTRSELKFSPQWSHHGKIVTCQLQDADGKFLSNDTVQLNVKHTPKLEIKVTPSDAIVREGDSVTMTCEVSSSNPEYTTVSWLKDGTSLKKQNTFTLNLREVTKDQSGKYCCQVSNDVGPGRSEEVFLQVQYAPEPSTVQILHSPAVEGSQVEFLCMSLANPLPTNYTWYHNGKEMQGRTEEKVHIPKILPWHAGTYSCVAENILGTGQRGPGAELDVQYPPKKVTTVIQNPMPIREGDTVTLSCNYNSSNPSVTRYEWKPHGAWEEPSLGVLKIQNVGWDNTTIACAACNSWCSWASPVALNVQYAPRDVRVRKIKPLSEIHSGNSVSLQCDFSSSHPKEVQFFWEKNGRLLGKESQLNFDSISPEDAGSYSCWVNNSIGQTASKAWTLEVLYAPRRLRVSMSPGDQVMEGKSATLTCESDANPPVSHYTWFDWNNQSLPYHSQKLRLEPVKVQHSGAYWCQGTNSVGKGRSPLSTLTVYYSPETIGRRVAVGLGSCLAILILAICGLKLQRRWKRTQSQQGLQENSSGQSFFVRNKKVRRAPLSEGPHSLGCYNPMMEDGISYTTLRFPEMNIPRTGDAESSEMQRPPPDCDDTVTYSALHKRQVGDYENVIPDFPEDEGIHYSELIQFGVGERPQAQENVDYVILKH
Nature of the assay: SPR binding affinity to human CD22. The conditions noted are these: steady-state analysis. Summed up:
(§1)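 SialoExo pretreatment, 4 h 37° C.; biotinylated CD22 on SA chip, Biacore 8K. Buffer 10 mM HEPES, 150 mM NaCl, 0.05% Tween-20, pH 7.5, 1% DMSO. Dissociation 120 s; solvent-corrected; steady-state KD.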

Assay [2] concerns the target T2, mouse Siglec-2-Fc-Avi (CD22) (Mus musculus, UniProt P35329).
T2 construct: made in house
T2 sequence (P35329 22-708 limits assumed): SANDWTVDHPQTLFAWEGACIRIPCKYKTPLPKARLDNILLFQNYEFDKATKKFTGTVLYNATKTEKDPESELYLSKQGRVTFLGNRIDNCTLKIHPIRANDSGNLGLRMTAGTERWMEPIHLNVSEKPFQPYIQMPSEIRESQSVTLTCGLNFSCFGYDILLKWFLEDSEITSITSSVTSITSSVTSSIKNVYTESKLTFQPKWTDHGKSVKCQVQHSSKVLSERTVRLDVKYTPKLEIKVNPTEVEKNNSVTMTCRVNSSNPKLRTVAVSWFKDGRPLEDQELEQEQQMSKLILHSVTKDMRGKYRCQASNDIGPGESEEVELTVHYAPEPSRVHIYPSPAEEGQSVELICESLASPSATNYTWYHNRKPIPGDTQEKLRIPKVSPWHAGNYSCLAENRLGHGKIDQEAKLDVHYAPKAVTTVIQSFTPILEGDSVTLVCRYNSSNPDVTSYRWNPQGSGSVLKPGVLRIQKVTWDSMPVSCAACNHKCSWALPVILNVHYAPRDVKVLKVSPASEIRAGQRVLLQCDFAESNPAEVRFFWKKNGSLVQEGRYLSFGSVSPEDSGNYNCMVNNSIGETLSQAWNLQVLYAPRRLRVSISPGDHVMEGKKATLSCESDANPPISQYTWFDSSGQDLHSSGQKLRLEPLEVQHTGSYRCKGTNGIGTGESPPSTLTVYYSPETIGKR
Nature of the assay: SPR binding affinity to mouse CD22. The conditions noted are these: steady-state analysis. Summed up: as §1

A further assay concerns the target cynomolgus Siglec-2/CD22 (Macaca fascicularis, UniProt A0A2K5WCZ6). Description: biochemical. It is filed as binding. To be noted: SPR, steady-state analysis; read-out: Affinity cyno CD22. As for the experimental part: Prior to immobilization, CD22 proteins were treated with SialoExo (Genovis, Cat #G1-SM1-020) for 4 hours at 37° C. to remove native sialic acid residues.
Surface preparation for cyno CD22 protein consisted of amine coupling to Cytiva CM5 chip (Cytiva, Cat #BR100530) using the Cytiva amine coupling kit Type 2 (Cytiva, Cat #BR100633). Following the standard amine coupling protocols, EDC and NHS from the kit were mixed 1:1 and injected over flow cells 1 and 2. […] Any active carboxy groups were then capped with 1M Ethanolamine, pH 8.5 for 420s on flow cells 1 and 2.
Binding experiments of Siglec-ligand conjugated proteins or Siglec ligand compounds were performed on the surfaces prepared above in 10 mM HEPES, 150 mM NaCl, 0.05% Tween-20, pH 7.5, 1% DMSO as the running buffer. […] The compounds were then allowed to dissociate from the surface for 120 seconds. […] Solvent correction was performed using 0.5, 1, 1.5, and 2% DMSO spike into running buffer without DMSO. […] Data was analyzed using steady-state analysis in Biacore Insight Evaluation Software, version 3.0 for Siglec ligand compounds.

SMILES strings stand for the structures. Where only a bound is given, the exact number is not on record here.

cynomolgus Siglec-2/CD22, sequence (A0A2K5WCZ6 entry or part of it): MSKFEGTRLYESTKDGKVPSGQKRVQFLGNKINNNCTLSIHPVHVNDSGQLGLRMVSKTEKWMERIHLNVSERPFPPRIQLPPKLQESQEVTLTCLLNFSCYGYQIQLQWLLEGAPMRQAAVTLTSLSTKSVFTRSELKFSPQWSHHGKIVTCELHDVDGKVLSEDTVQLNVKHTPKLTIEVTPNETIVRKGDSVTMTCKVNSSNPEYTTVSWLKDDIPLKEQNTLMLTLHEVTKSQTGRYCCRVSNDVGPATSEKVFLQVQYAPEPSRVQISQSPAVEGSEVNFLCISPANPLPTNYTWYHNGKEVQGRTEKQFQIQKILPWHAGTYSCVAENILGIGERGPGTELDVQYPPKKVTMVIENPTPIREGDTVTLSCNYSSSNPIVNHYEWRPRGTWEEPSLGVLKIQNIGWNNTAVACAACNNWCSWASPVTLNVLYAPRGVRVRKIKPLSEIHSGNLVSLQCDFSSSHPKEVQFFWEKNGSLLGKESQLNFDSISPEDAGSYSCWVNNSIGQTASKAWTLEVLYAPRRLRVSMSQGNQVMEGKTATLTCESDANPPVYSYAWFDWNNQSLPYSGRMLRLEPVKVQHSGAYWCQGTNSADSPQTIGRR

Regarding `C#CCOCCCCCCO[C@]1(C(=O)O)C[C@H](O)[C@@H](NC(C)=S)[C@H]([C@H](O)[C@H](O)CNC(=O)Cc2ccc(Cl)cc2)O1` [Compound 26, (2R,4S,5R,6R)-6-((1R,2R)-3-(2-(4-chlorophenyl)acetamido)-1,2-dihydroxypropyl)-5-ethanethioamido-4-hydroxy-2-((6-(prop-2-yn-1-yloxy)hexyl)oxy)tetrahydro-2H-pyran-2-carboxylic acid], the Kd in assay [1] is less than 1000 nM; in assay [2], less than 1 µM; on cynomolgus Siglec-2/CD22 it was less than 1 µM.
On to `C#CCOCCOCCO[C@]1(C(=O)O)C[C@H](O)[C@@H](NC(=O)CO)[C@H]([C@H](O)[C@H](O)CNC(=O)c2ccccc2Cl)O1` [Compound 27, (2R,4S,5R,6R)-6-((1R,2R)-3-(2-chlorobenzamido)-1,2-dihydroxypropyl)-4-hydroxy-5-(2-hydroxyacetamido)-2-(2-(2-(prop-2-yn-1-yloxy)ethoxy)ethoxy)tetrahydro-2H-pyran-2-carboxylic acid], for which the results for the Kd (in assay [1]; in assay [2]; at cynomolgus Siglec-2/CD22) were greater than 10000 nM, greater than 10 µM and greater than 10 µM, respectively.
As to `C#CCOCCOCCO[C@]1(C(=O)O)C[C@H](O)[C@@H](NC(=O)CO)[C@H]([C@H](O)[C@H](O)CNC(=O)c2ccccc2O)O1` [Compound 28, (2R,4S,5R,6R)-6-((1R,2R)-1,2-dihydroxy-3-(2-hydroxybenzamido)propyl)-4-hydroxy-5-(2-hydroxyacetamido)-2-(2-(2-(prop-2-yn-1-yloxy)ethoxy)ethoxy)tetrahydro-2H-pyran-2-carboxylic acid], the Kd is greater than 10000 nM in assay [1], greater than 10 µM in assay [2] and greater than 10 µM at cynomolgus Siglec-2/CD22.
For the molecule `C#CCOCCOCCO[C@]1(C(=O)O)C[C@H](O)[C@@H](NC(=O)CO)[C@H]([C@H](O)[C@H](O)CNC(=O)c2cccc(O)c2)O1` [Compound 29, (2R,4S,5R,6R)-6-((1R,2R)-1,2-dihydroxy-3-(3-hydroxybenzamido)propyl)-4-hydroxy-5-(2-hydroxyacetamido)-2-(2-(2-(prop-2-yn-1-yloxy)ethoxy)ethoxy)tetrahydro-2H-pyran-2-carboxylic acid], the Kd in assay [1] is 1000 to 10000 nM; in assay [2], greater than 10 µM; at cynomolgus Siglec-2/CD22 it was greater than 10 µM.
Take `C#CCOCCOCCO[C@]1(C(=O)O)C[C@H](O)[C@@H](NC(=O)CO)[C@H]([C@H](O)[C@H](O)CNC(=O)c2ccc(Cl)cc2)O1` [Compound 30, (2R,4S,5R,6R)-6-((1R,2R)-3-(4-chlorobenzamido)-1,2-dihydroxypropyl)-4-hydroxy-5-(2-hydroxyacetamido)-2-(2-(2-(prop-2-yn-1-yloxy)ethoxy)ethoxy)tetrahydro-2H-pyran-2-carboxylic acid]: the Kd in assay [1] was 1000 to 10000 nM; in assay [2], greater than 10 µM; on cynomolgus Siglec-2/CD22, 1 to 10 µM.
For `C#CCOCCOCCO[C@]1(C(=O)O)C[C@H](O)[C@@H](NC(=O)CO)[C@H]([C@@H](F)[C@H](O)CNC(=O)Cc2ccc(-c3ccccc3)cc2)O1` [Compound 32] the same measures were greater than 10000 nM, greater than 10 µM and greater than 10 µM.
The corresponding values for `C#CCOCCOCCO[C@]1(C(=O)O)C[C@H](O)[C@@H](NC(=O)CO)[C@H]([C@H](O)[C@H](O)CNC(=O)Cc2cccc(-c3ccccc3)c2)O1` [Compound 33, (2R,4S,5R,6R)-6-((1R,2R)-3-(2-([1,1′-biphenyl]-3-yl)acetamido)-1,2-dihydroxypropyl)-4-hydroxy-5-(2-hydroxyacetamido)-2-(2-(2-(prop-2-yn-1-yloxy)ethoxy)ethoxy)tetrahydro-2H-pyran-2-carboxylic acid] are less than 1000 nM, greater than 10 µM and 1 to 10 µM.
For `C#CCOCCOCCO[C@@]1(C(=O)O)O[C@@H]([C@H](O)[C@H](O)CNC(=O)Cc2ccc(-c3ccccc3)cc2)[C@H](NC(=O)CO)[C@@H](NC(=O)c2cccc(OC)c2)[C@@H]1O` [Compound 36, (2R,3S,4R,5R,6R)-6-((1R,2R)-3-(2-([1,1′-biphenyl]-4-yl)acetamido)-1,2-dihydroxypropyl)-3-hydroxy-5-(2-hydroxyacetamido)-4-(3-methoxybenzamido)-2-(2-(2-(prop-2-yn-1-yloxy)ethoxy)ethoxy)tetrahydro-2H-pyran-2-carboxylic acid] the same measures were less than 1000 nM, 1 to 10 µM and 1 to 10 µM.
Take `C#CCCOc1ccc(CO[C@]2(C(=O)O)C[C@H](O)[C@@H](NC(=O)CO)[C@H]([C@H](O)[C@H](O)CNC(=O)Cc3ccc(-c4ccccc4)cc3)O2)cc1` [Compound 37, (2R,4S,5R,6R)-6-((1R,2R)-3-(2-([1,1′-biphenyl]-4-yl)acetamido)-1,2-dihydroxypropyl)-2-((4-(but-3-yn-1-yloxy)benzyl)oxy)-4-hydroxy-5-(2-hydroxyacetamido)tetrahydro-2H-pyran-2-carboxylic acid]: the Kd in assay [1] is less than 1000 nM; in assay [2] it was less than 1 µM; on cynomolgus Siglec-2/CD22, less than 1 µM.
`C#CCCOc1cccc(CO[C@]2(C(=O)O)C[C@H](O)[C@@H](NC(=O)CO)[C@H]([C@H](O)[C@H](O)CNC(=O)Cc3ccc(-c4ccccc4)cc3)O2)c1` [Compound 38, (2R,4S,5R,6R)-6-((1R,2R)-3-(2-([1,1′-biphenyl]-4-yl)acetamido)-1,2-dihydroxypropyl)-2-((3-(but-3-yn-1-yloxy)benzyl)oxy)-4-hydroxy-5-(2-hydroxyacetamido)tetrahydro-2H-pyran-2-carboxylic acid]: the Kd in assay [1] was less than 1000 nM; in assay [2] it was less than 1 µM; on cynomolgus Siglec-2/CD22, less than 1 µM.
Regarding `C#CCCCCCCO[C@]1(C(=O)O)C[C@H](O)[C@@H](NC(=O)CO)[C@H]([C@H](O)[C@H](O)CNC(=O)c2cccc(Oc3ccccc3)c2)O1` [Compound 40, (2R,4S,5R,6R)-6-((1R,2R)-1,2-dihydroxy-3-(3-phenoxybenzamido)propyl)-4-hydroxy-5-(2-hydroxyacetamido)-2-(oct-7-yn-1-yloxy) tetrahydro-2H-pyran-2-carboxylic acid], the Kd in assay [1] was less than 1000 nM; in assay [2], 1 to 10 µM; at cynomolgus Siglec-2/CD22 it was less than 1 µM.
For `C#CCOCCOCCNc1c(NCCCCCCO[C@]2(C(=O)O)C[C@H](O)[C@@H](NC(=O)CO)[C@H]([C@H](O)[C@H](O)CNC(=O)C(F)(F)c3ccccc3)O2)c(=O)c1=O` [Compound 41, (2R,4S,5R,6R)-6-((1R,2R)-3-(2,2-difluoro-2-phenylacetamido)-1,2-dihydroxypropyl)-2-((6-((3,4-dioxo-2-((2-(2-(prop-2-yn-1-yloxy)ethoxy)ethyl)amino)cyclobut-1-en-1-yl)amino)hexyl)oxy)-4-hydroxy-5-(2-hydroxyacetamido) tetrahydro-2H-pyran-2-carboxylic acid] the same measures were 1000 to 10000 nM, 1 to 10 µM and 1 to 10 µM.

The values above are taken from patent publication US20250064941A1, “SIGLEC LIGANDS, CONJUGATES, AND METHODS OF USE THEREOF” (Osprey Biopharmaceuticals, Inc., priority 2023, published 2025).
